Measurements published in publication PMC7224190, “Pharmacological inhibition of PRMT7 links arginine monomethylation to the cellular stress response” (Nature Communications, 2020).

How the values were obtained:
Assay in all cases: biochemical
Conditions in all cases: read-out: % of control remaining
[1] = target: PRC2-EZH2 (Homo sapiens, UniProt Q15910); set-up: radiometric methyltransferase selectivity assay with tritiated SAM, per cent activity
[2] = target: T1, PRMT7 (Homo sapiens, UniProt Q9NVM4); set-up: full-length; radiometric methyltransferase selectivity assay with tritiated SAM, per cent activity
T1 sequence (Q9NVM4 1-692): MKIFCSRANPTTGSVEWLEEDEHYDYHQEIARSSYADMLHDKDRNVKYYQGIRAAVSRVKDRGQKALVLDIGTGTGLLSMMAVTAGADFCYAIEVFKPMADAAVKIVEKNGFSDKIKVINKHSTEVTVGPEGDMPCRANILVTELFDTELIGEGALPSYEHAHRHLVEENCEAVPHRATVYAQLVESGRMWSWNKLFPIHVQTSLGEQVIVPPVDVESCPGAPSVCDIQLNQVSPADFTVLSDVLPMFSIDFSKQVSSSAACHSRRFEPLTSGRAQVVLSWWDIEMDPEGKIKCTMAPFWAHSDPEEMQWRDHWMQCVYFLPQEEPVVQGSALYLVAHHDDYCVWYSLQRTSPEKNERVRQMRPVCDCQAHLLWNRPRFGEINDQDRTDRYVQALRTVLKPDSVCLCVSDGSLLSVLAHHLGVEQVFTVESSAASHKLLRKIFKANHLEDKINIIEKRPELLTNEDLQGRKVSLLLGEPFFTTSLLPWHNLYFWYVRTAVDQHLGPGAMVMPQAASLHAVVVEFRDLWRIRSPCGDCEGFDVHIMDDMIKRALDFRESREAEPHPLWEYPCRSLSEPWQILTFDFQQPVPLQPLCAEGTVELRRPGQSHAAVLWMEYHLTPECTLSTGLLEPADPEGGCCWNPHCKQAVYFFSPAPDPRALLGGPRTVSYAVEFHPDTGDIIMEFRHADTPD
Method: (§1) The methyltransferase selectivity was assessed at two compound concentrations of 1 and 10 μM by radiometric assays using tritiated-SAM. For methyltransferases: MLL1, MLL3, EZH1 (PRC2), and EZH2 (PRC2), G9a, GLP, SUV39H1, SUV39H2, SUV420H1, SUV420H2, SETD2, SETD8, SETDB1, SETD7, PRMT1, PRMT3, PRMT4, PRMT5/ MEP50 complex, PRMT6, PRMT7, PRMT8, PRMT9, PRDM9, SMYD2, SMYD3, DNMT1, and BCDIN3D the incorporation of a tritium-labeled methyl group into biotinylated substrate was monitored using scintillation proximity assay (SPA). Briefly, a 10 μL reaction containing ^3H-SAM and substrate at concentrations close to the apparent Km values for each enzyme (balanced conditions) was prepared. The reactions were quenched with 10 μL of 7.5 M guanidine hydrochloride; 180 μL of 20 mM Tris buffer (pH 8.0) were added, and the mixture was transferred to a 96-well FlashPlate and incubated for 1 h. The counts per minute (CPM) was measured on a TopCount plate reader. The CPM in the absence of compound or enzyme was defined as 100% activity and background (0%), respectively, for each dataset[74]–[76]. Selectivity of SGC8158 against 342 kinases was evaluated in a kinase panel TR-FRET assay at 1 and 0.1 μM compound in duplicates as described before. Briefly, tagged kinases were incubated with compound and staurosporine-based fluorescent probe where the binding was detected using Tb conjugated anti-tag antibody energy transfer to the probe. Excitation wavelength was 337 nm and fluorescent emission signal was measured for Tb (486 nm) and fluorescent probe (BODIPY, 515 nm). Specific and non-specific binding was determined in the absence and presence of unlabeled staurosporine.

[3] = target: PRMT6 (Homo sapiens, UniProt Q96LA8); set-up: radiometric methyltransferase selectivity assay with tritiated SAM, per cent activity
Method: as §1

[4] = target: PRMT3 (Homo sapiens, UniProt O60678); set-up: radiometric methyltransferase selectivity assay with tritiated SAM, per cent activity
Method: as §1

[5] = target: T2, PRMT9 (Homo sapiens, UniProt Q6P2P2); set-up: radiometric methyltransferase selectivity assay with tritiated SAM, per cent activity
T2 sequence (Q6P2P2 1-845): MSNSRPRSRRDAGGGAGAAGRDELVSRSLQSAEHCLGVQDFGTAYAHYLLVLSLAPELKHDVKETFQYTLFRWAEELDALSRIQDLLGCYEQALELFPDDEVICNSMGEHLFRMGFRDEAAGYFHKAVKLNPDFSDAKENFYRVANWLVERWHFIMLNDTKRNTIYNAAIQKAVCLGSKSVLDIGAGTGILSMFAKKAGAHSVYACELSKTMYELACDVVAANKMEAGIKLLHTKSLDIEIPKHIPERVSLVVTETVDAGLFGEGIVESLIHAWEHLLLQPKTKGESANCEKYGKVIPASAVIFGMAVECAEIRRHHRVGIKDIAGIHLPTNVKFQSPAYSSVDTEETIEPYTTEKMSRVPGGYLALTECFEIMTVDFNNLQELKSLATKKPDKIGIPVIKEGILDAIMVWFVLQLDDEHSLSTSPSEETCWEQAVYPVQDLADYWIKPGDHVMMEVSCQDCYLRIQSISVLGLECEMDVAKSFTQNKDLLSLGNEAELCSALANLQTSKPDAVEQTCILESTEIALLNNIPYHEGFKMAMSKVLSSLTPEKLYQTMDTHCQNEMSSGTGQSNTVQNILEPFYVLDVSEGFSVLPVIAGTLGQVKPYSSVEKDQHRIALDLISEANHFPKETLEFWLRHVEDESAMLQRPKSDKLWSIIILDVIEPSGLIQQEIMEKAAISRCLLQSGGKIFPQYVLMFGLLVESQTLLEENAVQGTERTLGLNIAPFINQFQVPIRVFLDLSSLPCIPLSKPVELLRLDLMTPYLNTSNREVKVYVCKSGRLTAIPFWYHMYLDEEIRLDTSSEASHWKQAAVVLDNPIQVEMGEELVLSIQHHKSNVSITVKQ
Method: as §1

[6] = target: ASH1L (Homo sapiens, UniProt Q9NR48); set-up: radiometric methyltransferase selectivity assay with tritiated SAM, per cent activity
Method: as §1

[7] = target: NSD1 (Homo sapiens, UniProt Q96L73); set-up: radiometric methyltransferase selectivity assay with tritiated SAM, per cent activity
Method: as §1

Chain of PRMT3 (O60678 whole entry): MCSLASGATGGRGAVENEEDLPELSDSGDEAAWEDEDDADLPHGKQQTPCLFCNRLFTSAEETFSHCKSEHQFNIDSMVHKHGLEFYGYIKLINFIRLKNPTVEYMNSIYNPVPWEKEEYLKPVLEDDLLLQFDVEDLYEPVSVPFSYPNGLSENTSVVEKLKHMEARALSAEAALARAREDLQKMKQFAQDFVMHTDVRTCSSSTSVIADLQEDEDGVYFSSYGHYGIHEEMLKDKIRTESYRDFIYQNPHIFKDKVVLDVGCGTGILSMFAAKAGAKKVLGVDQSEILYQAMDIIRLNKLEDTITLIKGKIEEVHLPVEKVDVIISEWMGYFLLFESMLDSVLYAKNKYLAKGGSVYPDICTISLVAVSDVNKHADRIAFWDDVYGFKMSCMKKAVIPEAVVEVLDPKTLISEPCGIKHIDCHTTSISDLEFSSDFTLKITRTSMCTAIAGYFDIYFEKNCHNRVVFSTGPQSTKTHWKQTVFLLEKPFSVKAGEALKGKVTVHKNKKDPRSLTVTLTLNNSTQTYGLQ
Chain of PRMT6 (Q96LA8 whole entry): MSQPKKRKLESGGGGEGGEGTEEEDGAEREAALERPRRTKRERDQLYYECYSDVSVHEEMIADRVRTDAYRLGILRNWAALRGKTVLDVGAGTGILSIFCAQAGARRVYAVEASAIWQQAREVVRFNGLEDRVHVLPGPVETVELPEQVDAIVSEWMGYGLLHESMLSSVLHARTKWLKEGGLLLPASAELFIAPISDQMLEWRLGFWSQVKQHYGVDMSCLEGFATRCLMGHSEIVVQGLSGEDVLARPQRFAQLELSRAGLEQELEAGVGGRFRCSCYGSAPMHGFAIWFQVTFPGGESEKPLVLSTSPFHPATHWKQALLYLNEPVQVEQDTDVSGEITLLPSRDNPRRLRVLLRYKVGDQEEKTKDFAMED
Chain of NSD1 (Q96L73 whole entry): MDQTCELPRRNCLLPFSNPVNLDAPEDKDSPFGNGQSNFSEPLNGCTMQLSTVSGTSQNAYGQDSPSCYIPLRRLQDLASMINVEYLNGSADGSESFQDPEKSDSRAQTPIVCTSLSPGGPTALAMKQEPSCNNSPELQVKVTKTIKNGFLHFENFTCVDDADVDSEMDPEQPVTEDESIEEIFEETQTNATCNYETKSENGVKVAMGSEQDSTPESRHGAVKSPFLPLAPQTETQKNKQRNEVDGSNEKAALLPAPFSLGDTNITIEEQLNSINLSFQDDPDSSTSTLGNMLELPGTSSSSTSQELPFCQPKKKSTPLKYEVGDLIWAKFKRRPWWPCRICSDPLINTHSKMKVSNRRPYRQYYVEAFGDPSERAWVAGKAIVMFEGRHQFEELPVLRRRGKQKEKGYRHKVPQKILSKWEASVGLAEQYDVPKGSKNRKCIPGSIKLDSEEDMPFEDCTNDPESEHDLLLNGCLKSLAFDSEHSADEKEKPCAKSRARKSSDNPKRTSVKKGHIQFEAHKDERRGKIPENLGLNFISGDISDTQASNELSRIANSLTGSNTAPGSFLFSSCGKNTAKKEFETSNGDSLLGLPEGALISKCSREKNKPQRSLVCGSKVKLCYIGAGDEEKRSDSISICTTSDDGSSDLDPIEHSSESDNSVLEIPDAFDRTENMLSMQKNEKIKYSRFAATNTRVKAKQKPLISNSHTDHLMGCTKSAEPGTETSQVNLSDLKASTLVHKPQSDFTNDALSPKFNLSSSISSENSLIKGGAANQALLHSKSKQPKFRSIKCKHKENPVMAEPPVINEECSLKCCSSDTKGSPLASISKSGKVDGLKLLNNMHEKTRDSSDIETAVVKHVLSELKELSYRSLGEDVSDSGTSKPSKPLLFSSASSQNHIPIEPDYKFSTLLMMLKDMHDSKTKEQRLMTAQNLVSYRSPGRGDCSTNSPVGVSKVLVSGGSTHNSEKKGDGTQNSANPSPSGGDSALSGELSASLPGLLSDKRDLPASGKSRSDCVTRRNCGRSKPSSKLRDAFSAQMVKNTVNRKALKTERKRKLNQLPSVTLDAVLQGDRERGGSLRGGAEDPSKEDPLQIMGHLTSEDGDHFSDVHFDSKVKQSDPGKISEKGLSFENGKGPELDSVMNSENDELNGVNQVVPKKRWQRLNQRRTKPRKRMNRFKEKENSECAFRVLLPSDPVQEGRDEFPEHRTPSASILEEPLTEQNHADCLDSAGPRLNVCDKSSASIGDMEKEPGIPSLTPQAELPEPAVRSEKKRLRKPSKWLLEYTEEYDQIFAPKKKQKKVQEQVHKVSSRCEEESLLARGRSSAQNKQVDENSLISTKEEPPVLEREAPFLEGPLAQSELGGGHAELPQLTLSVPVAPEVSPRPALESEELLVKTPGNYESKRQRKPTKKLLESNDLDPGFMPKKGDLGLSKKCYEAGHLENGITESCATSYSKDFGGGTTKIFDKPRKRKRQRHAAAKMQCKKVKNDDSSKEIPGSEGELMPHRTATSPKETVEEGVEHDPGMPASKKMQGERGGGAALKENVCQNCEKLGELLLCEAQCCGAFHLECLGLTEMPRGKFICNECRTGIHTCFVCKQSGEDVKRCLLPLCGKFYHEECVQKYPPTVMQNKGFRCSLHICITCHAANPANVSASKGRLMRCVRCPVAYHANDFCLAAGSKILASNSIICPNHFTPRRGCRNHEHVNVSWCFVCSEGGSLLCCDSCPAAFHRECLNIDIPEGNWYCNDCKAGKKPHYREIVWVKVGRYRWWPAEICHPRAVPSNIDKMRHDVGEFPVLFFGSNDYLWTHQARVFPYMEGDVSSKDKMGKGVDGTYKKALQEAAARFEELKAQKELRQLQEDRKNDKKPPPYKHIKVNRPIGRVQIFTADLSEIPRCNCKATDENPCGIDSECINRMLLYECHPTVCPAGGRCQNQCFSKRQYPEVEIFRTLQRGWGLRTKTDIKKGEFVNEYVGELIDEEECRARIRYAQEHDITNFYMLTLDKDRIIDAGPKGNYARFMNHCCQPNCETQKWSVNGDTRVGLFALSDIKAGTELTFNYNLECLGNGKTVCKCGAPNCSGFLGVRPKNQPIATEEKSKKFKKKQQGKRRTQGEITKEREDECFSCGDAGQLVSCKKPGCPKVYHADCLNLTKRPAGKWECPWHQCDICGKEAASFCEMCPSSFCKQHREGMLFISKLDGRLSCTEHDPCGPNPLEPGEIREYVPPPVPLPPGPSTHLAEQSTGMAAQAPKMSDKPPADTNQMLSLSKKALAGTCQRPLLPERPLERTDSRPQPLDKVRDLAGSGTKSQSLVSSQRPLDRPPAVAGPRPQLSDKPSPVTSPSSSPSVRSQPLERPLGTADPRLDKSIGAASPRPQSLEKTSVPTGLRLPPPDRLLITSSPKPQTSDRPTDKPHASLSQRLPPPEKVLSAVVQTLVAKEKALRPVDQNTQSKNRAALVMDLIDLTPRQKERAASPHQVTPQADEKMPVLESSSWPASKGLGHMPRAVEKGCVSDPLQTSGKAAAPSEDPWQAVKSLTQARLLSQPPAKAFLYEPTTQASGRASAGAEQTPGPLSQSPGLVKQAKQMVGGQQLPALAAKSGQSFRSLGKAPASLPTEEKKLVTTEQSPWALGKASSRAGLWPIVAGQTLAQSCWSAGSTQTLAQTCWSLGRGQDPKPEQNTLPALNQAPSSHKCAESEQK

| Structure (SMILES) | remaining activity at 1 µM [1] [%] | remaining activity at 10 µM [1] [%] | remaining activity at 1 µM [2] [%] | remaining activity at 10 µM [2] [%] | remaining activity at 1 µM [3] [%] | remaining activity at 10 µM [3] [%] | remaining activity at 1 µM [4] [%] | remaining activity at 10 µM [4] [%] | remaining activity at 1 µM [5] [%] | remaining activity at 10 µM [5] [%] | remaining activity at 1 µM [6] [%] | remaining activity at 10 µM [6] [%] | remaining activity at 1 µM [7] [%] | remaining activity at 10 µM [7] [%] |
| --- | --- | --- | --- | --- | --- | --- | --- | --- | --- | --- | --- | --- | --- | --- |
| CC1(C)O[C@@H]2[C@H](O1)[C@@H](CSCCCCNCc1cccc(-c3ccc(Cl)cc3)c1)O[C@H]2n1cnc2c(N)ncnc21 [SGC8158N] | 93 | 88 | 95 | 75 | 94 | 87 | 96 | 96 | 106 | 95 | 99 | 102 | 99 | 98 |
| Nc1ncnc2c1ncn2[C@@H]1O[C@H](CSCCCCNCc2cccc(-c3ccc(Cl)cc3)c2)[C@@H](O)[C@H]1O [SGC8158] | 105 | 94 | 2 | 0 | 100 | 58 | 57 | 6 | 19 | 4 | 96 | 97 | 104 | 99 |
